From patent US20230011869A1 (Hoffmann-La Roche Inc., priority 2018, published 2023)
Structures can show the parent of a compound that is named as a salt.

Test system: Acinetobacter baumannii ATCC17978
Assay: Antimicrobial susceptibility testing: 90% growth inhibitory concentration (IC90) determination, Iso-Sensitest broth
Type: cell-based
Conditions: 90% growth inhibitory concentration, Acinetobacter baumannii ATCC17978, Iso-Sensitest broth, OD 600 nm over 16 h; read-out: ATCC17978 IC90
Summary of the method: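 A. baumannii ATCC17978 grown in Iso-Sensitest broth across 10 compound concentrations at 35±2 °C.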

| IC90 | Structure (SMILES) |
| --- | --- |
| 270 nM | Cc1cc(Nc2nccn3c(-c4ccc(OC(F)F)cc4)cnc23)ccc1C(=O)N1CCN(C(=O)[C@@H]2C[C@@H](O)CN2)CC1 [Example 180, [4-[[3-[4-(difluoromethoxy)phenyl]imidazo[1,2-a]pyrazin-8-yl]amino]-2-methyl-phenyl]-[4-[(2S,4R)-4-hydroxypyrrolidine-2-carbonyl]piperazin-1-yl]methanone hydrochloride] |
| 130 nM | Cc1cc(Nc2nccn3c(-c4ccc(OC(F)F)cc4)cnc23)ccc1C(=O)N1CCC(C(=O)N2CCNCC2CO)CC1 (stereo not drawn) [Example 181, [4-[[3-[4-(difluoromethoxy)phenyl]imidazo[1,2-a]pyrazin-8-yl]amino]-2-methyl-phenyl]-[4-[2-(hydroxymethyl)piperazine-1-carbonyl]-1-piperidyl]methanone hydrochloride] |
| 180 nM | Cc1cc(Nc2nccn3c(-c4ccc(OC(F)F)cc4)cnc23)ccc1C(=O)N1CCN(C(=O)[C@@H]2C[C@H](O)CN2)CC1 [Example 182, [4-[[3-[4-(difluoromethoxy)phenyl]imidazo[1,2-a]pyrazin-8-yl]amino]-2-methyl-phenyl]-[4-[(2S,4S)-4-hydroxypyrrolidine-2-carbonyl]piperazin-1-yl]methanone hydrochloride hydrochloride] |
| 270 nM | Cc1cc(Nc2nccn3c(-c4ccc(OC(F)F)cc4)cnc23)ccc1C(=O)N1CCC(C(=O)N2CCNC(CO)C2)CC1 (stereo not drawn) [Example 183, [4-[[3-[4-(difluoromethoxy)phenyl]imidazo[1,2-a]pyrazin-8-yl]amino]-2-methyl-phenyl]-[4-[3-(hydroxymethyl)piperazine-1-carbonyl]-1-piperidyl]methanone hydrochloride] |
| 220 nM | CCc1cc(Nc2nccn3c(-c4ccc(OC)c(F)c4F)cnc23)ccc1C(=O)N1CCN(C(=O)[C@@H]2C[C@@H](O)CN2)CC1 [Example 185, [4-[[3-(2,3-difluoro-4-methoxy-phenyl)imidazo[1,2-a]pyrazin-8-yl]amino]-2-ethyl-phenyl]-[4-[(2S,4R)-4-hydroxypyrrolidine-2-carbonyl]piperazin-1-yl]methanone hydrochloride] |
| 250 nM | COc1ccc(-c2cnc3c(Nc4ccc(C(=O)N5CCN(C(=O)[C@H]6CCNC6)CC5)c(C)c4)nccn23)cc1F [Example 186, [4-[[3-(3-fluoro-4-methoxy-phenyl)imidazo[1,2-a]pyrazin-8-yl]amino]-2-methyl-phenyl]-[4-[(3S)-pyrrolidine-3-carbonyl]piperazin-1-yl]methanone hydrochloride] |
| 230 nM | COc1ccc(-c2cnc3c(Nc4ccc(C(=O)N5CCN(C(=O)C6CNC6)CC5)c(C)c4)nccn23)cc1F [Example 187, [4-(azetidine-3-carbonyl)piperazin-1-yl]-[4-[[3-(3-fluoro-4-methoxy-phenyl)imidazo[1,2-a]pyrazin-8-yl]amino]-2-methyl-phenyl]methanone hydrochloride] |
| 290 nM | COc1ccc(-c2cnc3c(Nc4ccc(C(=O)N5CCN(C(=O)[C@@H]6CCNC[C@H]6O)CC5)c(C)c4)nccn23)c(F)c1F [Example 193, [4-[[3-(2,3-difluoro-4-methoxy-phenyl)imidazo[1,2-a]pyrazin-8-yl]amino]-2-methyl-phenyl]-[4-[(3S,4R)-3-hydroxypiperidine-4-carbonyl]piperazin-1-yl]methanone hydrochloride] |

Further lines, the compound ahead of its results:

| Structure (SMILES) | IC90 |
| --- | --- |
| COc1ccc(-c2cnc3c(Nc4ccc(C(=O)N5CCN(C(=O)N6CCO[C@H](CN)C6)CC5)c(C)c4)nccn23)c(Cl)c1F [Example 167, [4-[(2R)-2-(aminomethyl)morpholine-4-carbonyl]piperazin-1-yl]-[4-[[3-(2-chloro-3-fluoro-4-methoxy-phenyl)imidazo[1,2-a]pyrazin-8-yl]amino]-2-methyl-phenyl]methanone formate] | 220 nM |
| Cc1cc(Nc2nccn3c(-c4ccc(OC(F)F)cc4)cnc23)ccc1C(=O)N1CCN(C(=O)NCCN2CCC2)CC1 [Example 168, N-[2-(azetidin-1-yl)ethyl]-4-[4-[[3-[4-(difluoromethoxy)phenyl]imidazo[1,2-a]pyrazin-8-yl]amino]-2-methyl-benzoyl]piperazine-1-carboxamide formate] | 470 nM |
| Cc1cc(Nc2nccn3c(-c4ccc(OC(F)F)cc4)cnc23)ccc1C(=O)N1CCN(C(=O)NC2CNC2)CC1 [Example 169, N-(azetidin-3-yl)-4-[4-[[3-[4-(difluoromethoxy)phenyl]imidazo[1,2-a]pyrazin-8-yl]amino]-2-methyl-benzoyl]piperazine-1-carboxamide trifluoroacetate] | 470 nM |
| COc1ccc(-c2cnc3c(Nc4ccc(C(=O)N5CCN(C(=O)C6CCCN6)CC5)c(C)c4)nccn23)cc1F (stereo not drawn) [Example 174, [4-[[3-(3-fluoro-4-methoxy-phenyl)imidazo[1,2-a]pyrazin-8-yl]amino]-2-methyl-phenyl]-[4-(pyrrolidine-2-carbonyl)piperazin-1-yl]methanone] | 300 nM |
| COc1ccc(-c2cnc3c(Nc4ccc(C(=O)N5CCN(C(=O)[C@@H]6CCN6)CC5)c(C)c4)nccn23)cc1F [Example 175, [4-[(2S)-azetidine-2-carbonyl]piperazin-1-yl]-[4-[[3-(3-fluoro-4-methoxy-phenyl)imidazo[1,2-a]pyrazin-8-yl]amino]-2-methyl-phenyl]methanone] | 250 nM |
| Cc1cc(Nc2nccn3c(-c4ccc(OC(F)F)cc4)cnc23)ccc1C(=O)N1CCN(C(=O)[C@@H]2CCN2)CC1 [Example 176, [4-[(2S)-azetidine-2-carbonyl]piperazin-1-yl]-[4-[[3-[4-(difluoromethoxy)phenyl]imidazo[1,2-a]pyrazin-8-yl]amino]-2-methyl-phenyl]methanone hydrochloride] | 130 nM |
| Cc1cc(Nc2nccn3c(-c4ccc(OC(F)F)cc4)cnc23)ccc1C(=O)N1CCN(C(=O)C2CCCN2)CC1 (stereo not drawn) [Example 177, [4-[[3-[4-(difluoromethoxy)phenyl]imidazo[1,2-a]pyrazin-8-yl]amino]-2-methyl-phenyl]-[4-(pyrrolidine-2-carbonyl)piperazin-1-yl]methanone hydrochloride] | 210 nM |
| COc1ccc(-c2cnc3c(Nc4ccc(C(=O)N5CCN(C(=O)[C@@H]6CCCN6)CC5)c(C)c4)nccn23)cc1F [Example 178, [4-[[3-(3-fluoro-4-methoxy-phenyl)imidazo[1,2-a]pyrazin-8-yl]amino]-2-methyl-phenyl]-[4-[(2S)-pyrrolidine-2-carbonyl]piperazin-1-yl]methanone hydrochloride] | 89 nM |
| COc1ccc(-c2cnc3c(Nc4ccc(C(=O)N5CCN(C(=O)[C@H]6CCCN6)CC5)c(C)c4)nccn23)cc1F [Example 179, [4-[[3-(3-fluoro-4-methoxy-phenyl)imidazo[1,2-a]pyrazin-8-yl]amino]-2-methyl-phenyl]-[4-[(2R)-pyrrolidine-2-carbonyl]piperazin-1-yl]methanone hydrochloride] | 190 nM |
| COc1ccc(-c2cnc3c(Nc4ccc(C(=O)N5CCN(C(=O)[C@H]6CCNC[C@@H]6O)CC5)c(C)c4)nccn23)c(F)c1F [Example 192, [4-[[3-(2,3-difluoro-4-methoxy-phenyl)imidazo[1,2-a]pyrazin-8-yl]amino]-2-methyl-phenyl]-[4-[(3R,4S)-3-hydroxypiperidine-4-carbonyl]piperazin-1-yl]methanone hydrochloride] | 290 nM |
